target: T1, Polyporus pinsitus laccase (Trametes villosa, UniProt Q99044); experiment: Bleaching of methyl orange using rPpL and NOH-type enhancing agents (initial bleaching rate); format: biochemical; details: pH 4; rPpL solution diluted 1:200; 0.2 mM mediator; 30° C.; large negative numbers = best performance
T1 construct: made in house
T1 sequence (Q99044 22-520): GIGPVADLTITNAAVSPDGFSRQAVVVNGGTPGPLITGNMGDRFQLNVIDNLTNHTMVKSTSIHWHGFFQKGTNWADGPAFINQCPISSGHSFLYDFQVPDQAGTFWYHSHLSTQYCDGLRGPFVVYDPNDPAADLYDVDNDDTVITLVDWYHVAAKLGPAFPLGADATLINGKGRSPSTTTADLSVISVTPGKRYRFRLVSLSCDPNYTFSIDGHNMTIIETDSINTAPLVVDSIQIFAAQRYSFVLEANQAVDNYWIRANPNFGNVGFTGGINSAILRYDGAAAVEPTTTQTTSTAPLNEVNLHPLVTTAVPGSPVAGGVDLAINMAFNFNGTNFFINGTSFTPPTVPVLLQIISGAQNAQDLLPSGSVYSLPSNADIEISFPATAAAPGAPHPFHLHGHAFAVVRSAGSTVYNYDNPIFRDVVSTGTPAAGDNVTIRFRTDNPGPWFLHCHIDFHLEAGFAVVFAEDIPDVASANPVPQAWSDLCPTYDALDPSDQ
Method: (§1) Britton-Robinson buffer is composed of:
(§2) Methyl orange (Merck, Germany)
(§3) Reactions were started by addition of enzyme. Absorbance at 464 nm was followed for 3 minutes (readings every 5 seconds) on a Cobas Fara at 30° C. Initial bleaching rates were determined from the first linear part of the progress curves.
(§4) The N—OH compounds listed above were tested as laccase mediators in bleaching of methyl orange with three recombinant laccases (rPpL, rMtL and rCcL) at various pH values. Large negative numbers represent the best performance.

Row | Structure (SMILES) | Initial changes per minute in A464 nm of methyl orange using rPpL
1 | O=c1c2ccccc2nnn1O [3-hydroxy-1,2,3-benzotriazin-4(3H)-one, 3-Hydroxy-1,2,3-benzotriazin-4(3H)-one] | −0.020 per minute
2 | [O-][n+]1cccc2ccccc21 [Quinoline-N-oxide] | −0.074 per minute
3 | O=C1c2ccccc2C(=O)N1O [N-hydroxyphthalimide] | −0.050 per minute
4 | CC[n+]1ccc(-c2ccc(S(=O)(=O)[O-])cc2)o1.O [2-Ethyl-5-phenylisoxazolium-4′-sulfonate, H2O] | −0.017 per minute

same assay, conditions: pH 5; rPpL solution diluted 1:200; 0.2 mM mediator; 30° C.; large negative numbers = best performance

Row | Structure (SMILES) | Initial changes per minute in A464 nm of methyl orange using rPpL
5 | O=c1c2ccccc2nnn1O [3-hydroxy-1,2,3-benzotriazin-4(3H)-one, 3-Hydroxy-1,2,3-benzotriazin-4(3H)-one] | −0.020 per minute
6 | [O-][n+]1cccc2ccccc21 [Quinoline-N-oxide] | −0.041 per minute
7 | O=C1c2ccccc2C(=O)N1O [N-hydroxyphthalimide] | −0.035 per minute
8 | CC[n+]1ccc(-c2ccc(S(=O)(=O)[O-])cc2)o1.O [2-Ethyl-5-phenylisoxazolium-4′-sulfonate, H2O] | −0.017 per minute

same assay, conditions: pH 6; rPpL solution diluted 1:200; 0.2 mM mediator; 30° C.; large negative numbers = best performance

Row | Structure (SMILES) | Initial changes per minute in A464 nm of methyl orange using rPpL
9 | O=c1c2ccccc2nnn1O [3-hydroxy-1,2,3-benzotriazin-4(3H)-one, 3-Hydroxy-1,2,3-benzotriazin-4(3H)-one] | −0.008 per minute
10 | [O-][n+]1cccc2ccccc21 [Quinoline-N-oxide] | −0.016 per minute
11 | O=C1c2ccccc2C(=O)N1O [N-hydroxyphthalimide] | −0.011 per minute
12 | CC[n+]1ccc(-c2ccc(S(=O)(=O)[O-])cc2)o1.O [2-Ethyl-5-phenylisoxazolium-4′-sulfonate, H2O] | −0.006 per minute

same assay, conditions: pH 7; rPpL solution diluted 1:200; 0.2 mM mediator; 30° C.; large negative numbers = best performance

Row | Structure (SMILES) | Initial changes per minute in A464 nm of methyl orange using rPpL
13 | O=c1c2ccccc2nnn1O [3-hydroxy-1,2,3-benzotriazin-4(3H)-one, 3-Hydroxy-1,2,3-benzotriazin-4(3H)-one] | 0.000 per minute
14 | [O-][n+]1cccc2ccccc21 [Quinoline-N-oxide] | −0.002 per minute
15 | O=C1c2ccccc2C(=O)N1O [N-hydroxyphthalimide] | −0.001 per minute
16 | CC[n+]1ccc(-c2ccc(S(=O)(=O)[O-])cc2)o1.O [2-Ethyl-5-phenylisoxazolium-4′-sulfonate, H2O] | 0.001 per minute

test system: Recombinant Coprinus cinereus laccase (rCcL); experiment: Bleaching of methyl orange using rCcL and NOH-type enhancing agents (initial bleaching rate); format: biochemical; details: pH 4; rCcL solution diluted 1:200; 0.2 mM mediator; 30° C.; large negative numbers = best performance
Method: as §1, §2, §3, §4

Row | Structure (SMILES) | Initial changes per minute in A464 nm of methyl orange using rCcL
17 | O=c1c2ccccc2nnn1O [3-hydroxy-1,2,3-benzotriazin-4(3H)-one, 3-Hydroxy-1,2,3-benzotriazin-4(3H)-one] | 0.004 per minute
18 | [O-][n+]1cccc2ccccc21 [Quinoline-N-oxide] | −0.004 per minute
19 | O=C1c2ccccc2C(=O)N1O [N-hydroxyphthalimide] | −0.006 per minute
20 | CC[n+]1ccc(-c2ccc(S(=O)(=O)[O-])cc2)o1.O [2-Ethyl-5-phenylisoxazolium-4′-sulfonate, H2O] | 0.005 per minute

same assay, conditions: pH 5; rCcL solution diluted 1:200; 0.2 mM mediator; 30° C.; large negative numbers = best performance

Row | Structure (SMILES) | Initial changes per minute in A464 nm of methyl orange using rCcL
21 | O=c1c2ccccc2nnn1O [3-hydroxy-1,2,3-benzotriazin-4(3H)-one, 3-Hydroxy-1,2,3-benzotriazin-4(3H)-one] | −0.004 per minute
22 | [O-][n+]1cccc2ccccc21 [Quinoline-N-oxide] | −0.006 per minute
23 | O=C1c2ccccc2C(=O)N1O [N-hydroxyphthalimide] | −0.007 per minute
24 | CC[n+]1ccc(-c2ccc(S(=O)(=O)[O-])cc2)o1.O [2-Ethyl-5-phenylisoxazolium-4′-sulfonate, H2O] | 0.000 per minute

same assay, conditions: pH 6; rCcL solution diluted 1:200; 0.2 mM mediator; 30° C.; large negative numbers = best performance

Row | Structure (SMILES) | Initial changes per minute in A464 nm of methyl orange using rCcL
25 | O=c1c2ccccc2nnn1O [3-hydroxy-1,2,3-benzotriazin-4(3H)-one, 3-Hydroxy-1,2,3-benzotriazin-4(3H)-one] | −0.011 per minute
26 | [O-][n+]1cccc2ccccc21 [Quinoline-N-oxide] | −0.010 per minute
27 | O=C1c2ccccc2C(=O)N1O [N-hydroxyphthalimide] | −0.014 per minute
28 | CC[n+]1ccc(-c2ccc(S(=O)(=O)[O-])cc2)o1.O [2-Ethyl-5-phenylisoxazolium-4′-sulfonate, H2O] | −0.006 per minute

same assay, conditions: pH 7; rCcL solution diluted 1:200; 0.2 mM mediator; 30° C.; large negative numbers = best performance

Row | Structure (SMILES) | Initial changes per minute in A464 nm of methyl orange using rCcL
29 | O=c1c2ccccc2nnn1O [3-hydroxy-1,2,3-benzotriazin-4(3H)-one, 3-Hydroxy-1,2,3-benzotriazin-4(3H)-one] | −0.008 per minute
30 | [O-][n+]1cccc2ccccc21 [Quinoline-N-oxide] | −0.008 per minute
31 | O=C1c2ccccc2C(=O)N1O [N-hydroxyphthalimide] | −0.011 per minute
32 | CC[n+]1ccc(-c2ccc(S(=O)(=O)[O-])cc2)o1.O [2-Ethyl-5-phenylisoxazolium-4′-sulfonate, H2O] | −0.004 per minute

same assay, conditions: pH 8; rCcL solution diluted 1:200; 0.2 mM mediator; 30° C.; large negative numbers = best performance

Row | Structure (SMILES) | Initial changes per minute in A464 nm of methyl orange using rCcL
33 | O=c1c2ccccc2nnn1O [3-hydroxy-1,2,3-benzotriazin-4(3H)-one, 3-Hydroxy-1,2,3-benzotriazin-4(3H)-one] | −0.002 per minute
34 | [O-][n+]1cccc2ccccc21 [Quinoline-N-oxide] | −0.004 per minute
35 | O=C1c2ccccc2C(=O)N1O [N-hydroxyphthalimide] | −0.004 per minute
36 | CC[n+]1ccc(-c2ccc(S(=O)(=O)[O-])cc2)o1.O [2-Ethyl-5-phenylisoxazolium-4′-sulfonate, H2O] | −0.001 per minute

test system: Recombinant Myceliophthora thermophila laccase (rMtL); experiment: Bleaching of methyl orange using rMtL and NOH-type enhancing agents (initial bleaching rate); format: biochemical; details: pH 4; rMtL solution diluted 1:300; 0.2 mM mediator; 30° C.; large negative numbers = best performance
Method: as §1, §2, §3, §4

Row | Structure (SMILES) | Initial changes per minute in A464 nm of methyl orange using rMtL
37 | O=c1c2ccccc2nnn1O [3-hydroxy-1,2,3-benzotriazin-4(3H)-one, 3-Hydroxy-1,2,3-benzotriazin-4(3H)-one] | −0.016 per minute
38 | [O-][n+]1cccc2ccccc21 [Quinoline-N-oxide] | −0.016 per minute
39 | O=C1c2ccccc2C(=O)N1O [N-hydroxyphthalimide] | −0.019 per minute
40 | CC[n+]1ccc(-c2ccc(S(=O)(=O)[O-])cc2)o1.O [2-Ethyl-5-phenylisoxazolium-4′-sulfonate, H2O] | −0.012 per minute

same assay, conditions: pH 5; rMtL solution diluted 1:300; 0.2 mM mediator; 30° C.; large negative numbers = best performance

Row | Structure (SMILES) | Initial changes per minute in A464 nm of methyl orange using rMtL
41 | O=c1c2ccccc2nnn1O [3-hydroxy-1,2,3-benzotriazin-4(3H)-one, 3-Hydroxy-1,2,3-benzotriazin-4(3H)-one] | −0.011 per minute
42 | [O-][n+]1cccc2ccccc21 [Quinoline-N-oxide] | −0.011 per minute
43 | O=C1c2ccccc2C(=O)N1O [N-hydroxyphthalimide] | −0.016 per minute
44 | CC[n+]1ccc(-c2ccc(S(=O)(=O)[O-])cc2)o1.O [2-Ethyl-5-phenylisoxazolium-4′-sulfonate, H2O] | −0.004 per minute

same assay, conditions: pH 6; rMtL solution diluted 1:300; 0.2 mM mediator; 30° C.; large negative numbers = best performance

Row | Structure (SMILES) | Initial changes per minute in A464 nm of methyl orange using rMtL
45 | O=c1c2ccccc2nnn1O [3-hydroxy-1,2,3-benzotriazin-4(3H)-one, 3-Hydroxy-1,2,3-benzotriazin-4(3H)-one] | −0.001 per minute
46 | [O-][n+]1cccc2ccccc21 [Quinoline-N-oxide] | −0.002 per minute
47 | O=C1c2ccccc2C(=O)N1O [N-hydroxyphthalimide] | −0.005 per minute
48 | CC[n+]1ccc(-c2ccc(S(=O)(=O)[O-])cc2)o1.O [2-Ethyl-5-phenylisoxazolium-4′-sulfonate, H2O] | −0.002 per minute

same assay, conditions: pH 7; rMtL solution diluted 1:300; 0.2 mM mediator; 30° C.; large negative numbers = best performance

Row | Structure (SMILES) | Initial changes per minute in A464 nm of methyl orange using rMtL
49 | O=c1c2ccccc2nnn1O [3-hydroxy-1,2,3-benzotriazin-4(3H)-one, 3-Hydroxy-1,2,3-benzotriazin-4(3H)-one] | 0.002 per minute
50 | [O-][n+]1cccc2ccccc21 [Quinoline-N-oxide] | 0.000 per minute
51 | O=C1c2ccccc2C(=O)N1O [N-hydroxyphthalimide] | 0.000 per minute
52 | CC[n+]1ccc(-c2ccc(S(=O)(=O)[O-])cc2)o1.O [2-Ethyl-5-phenylisoxazolium-4′-sulfonate, H2O] | 0.000 per minute

— patent US6399561B1, “Methods and compositions for bleaching a dye in solution” (Novozymes A/S, priority 1998, dated 2002)
